Measured values from patent US8092829B2, “Use of R-arylpropionic acids for treating illnesses with a rheumatic nature” (Paz Arzneimittelentwicklungsgesellschaft mbH, priority 2000, dated 2012).

System: AP-1
Test: Inhibition of AP-1 activation (AP-1 DNA binding activity by EMSA) in LPS-stimulated RAW 264-7 macrophages
Type: cell-based, murine
Conditions: LPS-stimulated RAW 264-7 cells, nuclear extract; for AP-1 DNA binding at the highest concentration: 1000 μM (tested 0.1-1000 μM)
Protocol: The inhibition of the activation of AP-1 was shown with a pharmacological model. For this purpose, a cell culture of the murine macrophage cell line RAW 264-7 was taken and stimulated with 10 mg/ml LPS for 1 hour in the absence or in the presence of flurbiprofen. R-flurbiprofen (0.1, 1, 10, 100 and 1000 μM) and S-flurbiprofen (0.1, 1, 10, 100 and 1000 μM) were dissolved in phosphate buffer, added to the cell cultures 30 minutes before the LPS treatment. After conclusion of the treatment, the cells were harvested and worked up in a cytosol fraction and a cell nucleus extract. The cell nucleus extract ([…]) was incubated for 30 minutes with the AP-1-specific oligonucleotide 5′-CGCTT GATGACTCAGCCGGAA-3′ which is terminally labelled with ^32P ATP. From the incubation medium was separated the nucleus protein DNA complexes from the non-bound DNA by electro-phoresis (electrophoretic mobile shift assay EMSA). After drying of the gels, these were visualised by means of autoradiography.

Compound | AP-1 DNA binding at the highest concentration | inhibition of AP-1 DNA binding (10-1000 μM, added 30 minutes before LPS)
C[C@@H](C(=O)O)c1ccc(-c2ccccc2)c(F)c1 [R-flurbiprofen] | completely suppressed | inhibits the AP-1 DNA binding dosage-dependent
C[C@H](C(=O)O)c1ccc(-c2ccccc2)c(F)c1 [S-flurbiprofen, reference compound] | a reduction was found only in the case of the highest concentration | 
